For one assay, the target named is T1, M3 muscarinic receptors (Homo sapiens, UniProt P20309).
T1 construct: Parotid gland tissue was collected from patients aged 40-55 years undergoing surgery; endogenous in cells; host or cells: primary acinar-like cells (passage 3-4) from patients' parotid gland tissue, on 2.5D or in 3D HA hydrogels
Briefly: Intracellular calcium release (Fluo-4) in acini-like structures on 2.5D / in 3D HA hydrogels treated with acetylcholine. It counts as cell-based. As to the method: Intracellular calcium [Cai] release studies utilized the calcium indicator dye, Fluo-4 (Invitrogen). Cells were seeded at 1×10^5 cells/gel in cell culture inserts as before. Cells on 2.5D and in 3D hydrogels were cultured for 12 days. Fluo-4 was suspended in 0.8% (w/v) pluronic acid and mixed with 8 mL of 1× Hanks' balanced salt solution (HBSS) without calcium. Cell-seeded hydrogels were incubated with Fluo-4 suspended in pluronic acid for 30 min at 37° C. After 30 min, cells were washed twice with 1×HBSS, and incubated for 30 min in HBSS. After loading and recovery, hydrogels were imaged using a Zeiss LSM 5-live high-speed confocal microscope. Baseline fluorescence was established for 30 sec at 488 nm. Cell-seeded hydrogels then were treated with various concentrations (ranging from 50 μM-500 μM) of the muscarinic agonist acetylcholine chloride. 2.5D hydrogels were flipped so that cells were on the bottom of the chamber slides. 50 μL of the agonist was added to the bottom of the chamber containing 50 μL medium. 3D hydrogels were suspended in 100 μL of medium and treated with 100 μL of agonist. Resulting increases in Cai levels were captured in a series of image scans and by graph plot.
To stimulate fluid secretion, salivary acinar-like cells were treated with acetylcholine. Addition of 50 μM acetylcholine induced a robust calcium response in self-assembling acini-like structures cultured on 2.5D hydrogels (FIG. 27A). Acini-like structures on hydrogels were imaged without saline buffer to minimize movement of hydrogels in the liquid. The calcium response peak seen at ˜5 min can be attributed to the diffusion time needed by the neurotransmitter to pass through the hydrogel to the cells. Treatment with 100 μM acetylcholine produced calcium oscillations lasting over 20 min in multiple cells within a self-assembled acinus-like structure (FIG. 27B). Oscillations from different structures varied in intensity. […] Experiments were performed three times with each agonist concentration, on separate hydrogel cultures. Data were recorded from 3-4 acini-like structures each time. […] Positive controls used a hypotonic solution to induce a calcium response.
Treatment with 50 μM acetylcholine induced calcium oscillations that lasted over 20 minutes in spheroid structures encapsulated in 3D hydrogels (FIG. 27D). […] Compared to the response seen among 2.5D cultures, the increase in [Ca^2+] was quicker in 3D, where cells responded to acetylcholine treatment within 30 seconds while cells in 2.5D took nearly 300 seconds. […] Thus, cell response to acetylcholine agonist in 3D was faster, more intense, and more prolonged than cell response in 2.5D.

In the next assay the test system is β adrenergic receptors. Briefly: Exocytic granule production and α-amylase staining in salivary acinar-like cells on/in HA hydrogels. It counts as cell-based, human. The settings on record: 50 μM. As to the method:
Cells seeded (1×10^5 cells/gel) on/in hydrogels were treated with varying concentrations (10 μM to 100 μM) of isoproterenol hydrochloride (Santa Cruz Biotechnology) and norepinephrine hydrochloride (Sigma), each of which induce granule production and exocytosis, for various time points from 15 min-2 h. After treatment, culture medium was removed and cells were fixed immediately with 100% methanol and stained with α-amylase for microscopic analysis. Functionality of salivary acinar-like cells was assessed by response to neurotransmitter agonists. Norepinephrine binding to the β adrenergic receptors activates the protein secretion pathway. In this study, the sympathomimetic β adrenergic agonists, norepinephrine and isoproterenol, were used to stimulate protein production and exocytosis. Salivary acinar-like cells cultured on/in hydrogels were treated with 50 μM isoproterenol for 15 min to 1 hr. After treatment, cells were immediately fixed and stained, then analyzed for granule formation and α-amylase expression. FIGS. 21-25 quantify the extent of amylase response, using the intensity of fluorescence staining as a surrogate. […] Exocytosing granules stained in red for α-amylase are seen budding out from the cell membrane in FIG. 21C, E, F. Granule production has been quantified in FIG. 26. Upon stimulation, acini-like structures in 3D also secreted α-amylase into the hydrogel (FIG. 21E, F). α-Amylase staining is quantified in FIGS. 23-25.

Another assay concerns the target HP. The settings on record: read-out: Dissociation constant (Kd) of complex with HP; cited from earlier work.
The test system of assay [1] is spheroids in 3D HA hydrogels. Description: FGF7 treatment of spheroids in 3D HA hydrogels. The class given is cell-based, human. The settings on record: 25 ng/mL FGF7 daily for 10 d and 12 d. As to the method:
FIG. 14 is a picture depicting organized spheroids. […] (a) Untreated cells at 20 d culture. (b,c) Spheroids treated with 25 ng/mL FGF7 daily for (b) 10 d and (c) 12 d.
Functional neotissue glands must advance beyond spherical lumen to initiate directional delivery of secretory products and recreate the differentiated roles of fluid producing acinar and fluid resorbing ductal cells. Recent work identified the specific roles of FGF7 and FGF10 in inducing ductal elongation and branching, respectively. These roles are tied to the cells' perceived gradients of each GF from a point source, defined by diffusion through ECM and controlled by their binding to HS (in Pln and other proteoglycans). […] When delivered through media, FGF7 may induce overall larger spheroids (as expected, when FGF7 is not delivered from a directional point source). […] HGPs are an optimal mechanism for directional controlled delivery of FGF7 and FGF10.

Where a name gives a salt, the structure may show the parent alone.

T1 sequence (P20309 whole entry): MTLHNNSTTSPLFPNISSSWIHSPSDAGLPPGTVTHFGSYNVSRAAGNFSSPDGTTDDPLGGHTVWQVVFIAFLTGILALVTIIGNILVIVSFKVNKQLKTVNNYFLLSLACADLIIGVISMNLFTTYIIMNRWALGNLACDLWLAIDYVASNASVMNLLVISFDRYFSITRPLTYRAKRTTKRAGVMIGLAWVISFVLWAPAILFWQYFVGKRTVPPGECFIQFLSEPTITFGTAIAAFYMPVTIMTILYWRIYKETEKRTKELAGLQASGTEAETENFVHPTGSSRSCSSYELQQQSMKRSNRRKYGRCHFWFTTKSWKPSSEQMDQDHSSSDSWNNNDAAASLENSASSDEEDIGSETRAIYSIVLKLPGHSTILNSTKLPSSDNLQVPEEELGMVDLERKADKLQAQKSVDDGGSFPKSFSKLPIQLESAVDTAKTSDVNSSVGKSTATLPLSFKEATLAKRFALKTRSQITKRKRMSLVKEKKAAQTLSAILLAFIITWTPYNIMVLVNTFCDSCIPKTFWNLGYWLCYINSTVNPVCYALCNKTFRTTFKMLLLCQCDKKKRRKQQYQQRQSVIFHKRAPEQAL

Take `CC(=O)OCC[N+](C)(C)C.[Cl-]` [ACh, acetylcholine chloride]: the “Average Peak Height (Intensity)” value on M3 muscarinic receptors (2.5D hydrogel, 50 μM ACh) came out at 58 ± 11; on M3 muscarinic receptors (2.5D hydrogel, 100 μM ACh) it was 10 ± 3; at M3 muscarinic receptors (3D hydrogel, 50 μM ACh), 39 ± 6; on M3 muscarinic receptors (3D hydrogel, 100 μM ACh) it was 14 ± 8. Besides, the “Average Peak Length” value on M3 muscarinic receptors (2.5D hydrogel, 50 μM ACh) is on record as 42 ± 21 s; on M3 muscarinic receptors (2.5D hydrogel, 100 μM ACh) it was 46 ± 9 s; at M3 muscarinic receptors (3D hydrogel, 50 μM ACh), 164 ± 8 s; at M3 muscarinic receptors (3D hydrogel, 100 μM ACh) it was 180 ± 34 s. Also, the “Percent Responders” value on M3 muscarinic receptors (2.5D hydrogel, 50 μM ACh) came out at 33%; at M3 muscarinic receptors (2.5D hydrogel, 100 μM ACh), 22%; at M3 muscarinic receptors (3D hydrogel, 50 μM ACh) it was 43%; at M3 muscarinic receptors (3D hydrogel, 100 μM ACh) it was 16%. For the same molecule, at M3 muscarinic receptors (2.5D hydrogels, 50 μM), the “Time of calcium response peak” value was around 5 min. For the same molecule, the “Duration of calcium oscillations” value at M3 muscarinic receptors (2.5D hydrogels, 100 μM) was “over 20 min”; on M3 muscarinic receptors (3D hydrogels, 50 μM), “over 20 minutes”. Also, the Calcium oscillations result at M3 muscarinic receptors (3D cultures, 100 μM) is listed as “induced similar oscillations”. Further, the figures for the “Time until cells responded with increase in [Ca2+]” value at M3 muscarinic receptors (cells in 2.5D) and on M3 muscarinic receptors (cells in 3D) were around 300 s and at most 30 s, respectively.

`CC(C)NCC(O)c1ccc(O)c(O)c1` (stereo not drawn) [isoproterenol, isoproterenol hydrochloride]: the α-Amylase localisation result with β adrenergic receptors (15 min) was “α-amylase near the membrane periphery”. Moreover, the “Granule formation and α-amylase staining” value in the assay with β adrenergic receptors (1 h, 2.5D and 3D) was “presence of granules and robust α-amylase staining”.

For the molecule `NC[C@H](O)c1ccc(O)c(O)c1` [norepinephrine, norepinephrine hydrochloride], the Secretory granules result with β adrenergic receptors (2.5D and 3D) was “displayed multiple secretory granules”.

For orientation: Kd means the constant that tells how readily two partners part at equilibrium. Take VEGF: the dissociation constant (Kd) at HP was 165 nM.

B1: FGF7: heparin-binding growth factor (protein, UniProt P21781 32-194, looked up)
Fibroblast growth factor 7: CNDMTPEQMATNVNCSSPERHTRSYDYMEGGDIRVRRLFCRTQWYLRIDKRGKVKGTQEMKNNYNIMEIRTVAVGIVAIKGVESEFYLAMNKEGKLYAKKECNEDCNFKELILENHYNTYASAKWTHNGGEMFVALNQKGIPVRGKKTKKEQKTAHFLPMAIT
Regarding B1, the Spheroid size result in assay [1] is on record as “increases spheroid size”. Also, the Kd at HP is 30 to 49 nM.

Source of the values: patent US9642941B2, “Implantable modular hydrogel for salivary gland restoration” (WILLIAM MARSH RICE UNIVERSITY, priority 2011, dated 2017).
